Measured values reported in patent publication US20260132132A1, “3A,4,5,6-TETRAHYDRO-1 H-PYRAZOLO[3,4-C]PYRIDIN-7(7AH)-ONE DERIVATIVES AS FACTOR XIIA INHIBITORS” (KALVISTA PHARMACEUTICALS LIMITED, priority 2022, published 2026).

Columns and labels:
FXa = FXa (Homo sapiens, UniProt P00742); assay: Related protease inhibition: FXa, fluorogenic substrate; assay type: biochemical; conditions: fluorogenic substrate at Km, 25° C.; H1-H3 = % activity at 40 μM
Description: Human serine protease enzyme Plasma Kallikrein, KLK1, FXa, Plasmin, Thrombin and Trypsin were assayed for enzymatic activity using an appropriate fluorogenic substrate at Km concentration, FXIa at fixed substrate concentration of 100 μM and various concentrations of the test compound.

[1] = target: T1, Human Factor XIIa (hFXIIa) (Homo sapiens, UniProt P00748); assay: Determination of Human Factor XIIa (hFXIIa) inhibition, fluorogenic substrate IC50 assay; assay type: biochemical; conditions: fluorogenic substrate H-DPro-Phe-Arg-AFC at Km, 25° C., read-out: Human FXIIa IC50
T1 construct: purchased Enzyme Research Laboratories
T1 sequence (P00748 373-615 limits assumed): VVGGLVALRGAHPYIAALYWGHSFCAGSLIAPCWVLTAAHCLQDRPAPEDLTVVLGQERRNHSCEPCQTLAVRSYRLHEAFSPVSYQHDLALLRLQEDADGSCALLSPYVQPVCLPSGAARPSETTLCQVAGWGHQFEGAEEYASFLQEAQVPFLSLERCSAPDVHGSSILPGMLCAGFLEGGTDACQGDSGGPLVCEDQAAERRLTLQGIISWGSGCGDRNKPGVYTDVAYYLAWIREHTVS
T1 sequence (P00748 20-372 partner limits assumed): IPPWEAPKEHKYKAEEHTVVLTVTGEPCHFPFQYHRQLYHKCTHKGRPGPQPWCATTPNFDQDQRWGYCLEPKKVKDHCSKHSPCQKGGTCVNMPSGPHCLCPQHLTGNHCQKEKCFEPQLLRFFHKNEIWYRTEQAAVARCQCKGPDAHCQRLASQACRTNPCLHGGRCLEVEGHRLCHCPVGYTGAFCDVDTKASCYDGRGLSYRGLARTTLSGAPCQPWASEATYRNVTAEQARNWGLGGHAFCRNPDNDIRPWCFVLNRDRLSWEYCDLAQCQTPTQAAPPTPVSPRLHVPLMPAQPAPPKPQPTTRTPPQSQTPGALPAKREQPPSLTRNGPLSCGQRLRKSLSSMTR
Description: Determination of Human Factor XIIa (hFXIIa) inhibition
The Km for the cleavage of the substrate by hFXIIa was determined by standard transformation of the Michaelis-Menten equation, with subsequent inhibition assays performed at substrate Km concentration.

Chain of FXa (P00742 235-488 limits assumed): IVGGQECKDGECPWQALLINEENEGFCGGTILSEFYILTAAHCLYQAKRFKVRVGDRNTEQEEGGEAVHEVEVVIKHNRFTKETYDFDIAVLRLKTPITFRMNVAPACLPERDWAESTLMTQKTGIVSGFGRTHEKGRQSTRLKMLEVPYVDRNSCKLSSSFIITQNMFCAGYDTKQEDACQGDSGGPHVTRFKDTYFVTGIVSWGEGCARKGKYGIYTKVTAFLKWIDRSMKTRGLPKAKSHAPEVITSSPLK
Chain of FXa (P00742 41-179 partner limits assumed): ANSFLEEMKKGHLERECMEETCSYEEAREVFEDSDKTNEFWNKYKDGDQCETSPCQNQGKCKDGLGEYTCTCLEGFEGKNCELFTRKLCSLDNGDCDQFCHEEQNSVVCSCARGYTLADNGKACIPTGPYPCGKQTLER

Structure (SMILES)	IC50 (FXa)	IC50 [1]
Cc1ncccc1CNC(=O)c1nn(-c2cccc(Cl)c2)c2c1CCN(c1ccc3c(c1)CN(CCO)CC3)C2=O [Example 1111, 1-(3-chlorophenyl)-6-(2-(2-hydroxyethyl)-1,2,3,4-tetrahydroisoquinolin-7-yl)-N-((2-methylpyridin-3-yl)methyl)-7-oxo-4,5,6,7-tetrahydro-1H-pyrazolo[3,4-c]pyridine-3-carboxamide]	10 to 40 µM	0.01 to 0.1 µM
Cc1cn(C)nc1CNC(=O)c1nn(-c2cccc(Cl)c2)c2c1CCN(c1ccc3c(c1)C(=O)N(C)CC3)C2=O [Example 1225, 1-(3-chlorophenyl)-N-((1,4-dimethyl-1H-pyrazol-3-yl)methyl)-6-(2-methyl-1-oxo-1,2,3,4-tetrahydroisoquinolin-7-yl)-7-oxo-4,5,6,7-tetrahydro-1H-pyrazolo[3,4-c]pyridine-3-carboxamide]	10 to 40 µM	0.1 to 0.3 µM
Cc1ccncc1CNC(=O)c1nn(-c2cccc(Cl)c2)c2c1CCN(c1ccc3c(c1)C(=O)N(C)[C@@H](CO)CO3)C2=O [Example 1396, (S)-1-(3-chlorophenyl)-6-(3-(hydroxymethyl)-4-methyl-5-oxo-2,3,4,5-tetrahydrobenzo[f][1,4]oxazepin-7-yl)-N-((4-methylpyridin-3-yl)methyl)-7-oxo-4,5,6,7-tetrahydro-1H-pyrazolo[3,4-c]pyridine-3-carboxamide]	> 40 µM	0.3 to 1 µM
Cc1ccncc1CNC(=O)c1nn(-c2cccc(Cl)c2)c2c1CCN(c1ccc3c(c1)CN(CCO)CC3)C2=O [Example 1110, 1-(3-chlorophenyl)-6-(2-(2-hydroxyethyl)-1,2,3,4-tetrahydroisoquinolin-7-yl)-N-((4-methylpyridin-3-yl)methyl)-7-oxo-4,5,6,7-tetrahydro-1H-pyrazolo[3,4-c]pyridine-3-carboxamide]	10 to 40 µM	0.01 to 0.1 µM
C[C@H](NC(=O)c1nn(-c2cccc(Cl)c2)c2c1CCN(c1ccc3c(c1)C(=O)N(C)CC3)C2=O)C(=O)O [Example 1391, (1-(3-chlorophenyl)-6-(2-methyl-1-oxo-1,2,3,4-tetrahydroisoquinolin-7-yl)-7-oxo-4,5,6,7-tetrahydro-1H-pyrazolo[3,4-c]pyridine-3-carbonyl)-L-alanine]	> 40 µM	0.3 to 1 µM
O=C(NCc1ccnnc1)c1nn(-c2cccc(Cl)c2)c2c1CCN(c1ccc3c(c1)CN(CCO)CC3)C2=O [Example 1218, 1-(3-chlorophenyl)-6-(2-(2-hydroxyethyl)-1,2,3,4-tetrahydroisoquinolin-7-yl)-7-oxo-N-(pyridazin-4-ylmethyl)-4,5,6,7-tetrahydro-1H-pyrazolo[3,4-c]pyridine-3-carboxamide]	> 40 µM	0.1 to 0.3 µM
Cc1nc2c(C(=O)NCC3CC3)nn(-c3cccc(Cl)c3)c2c(=O)n1-c1ccc2c(c1)C(=O)N(CCO)CC2 [Example 3016, 1-(3-chlorophenyl)-N-(cyclopropylmethyl)-6-(2-(2-hydroxyethyl)-1-oxo-1,2,3,4-tetrahydroisoquinolin-7-yl)-5-methyl-7-oxo-6,7-dihydro-1H-pyrazolo[4,3-d]pyrimidine-3-carboxamide]	> 40 µM	0.1 to 0.3 µM
Cc1cn(C)nc1CNC(=O)c1nn(-c2cccc(Cl)c2)c2c(=O)n(-c3ccc4c(c3)CN(CCO)CC4)c(C)nc12 [Example 3005, 1-(3-Chlorophenyl)-N-[(1,4-dimethylpyrazol-3-yl)methyl]-6-[2-(2-hydroxyethyl)-3,4-dihydro-1H-isoquinolin-7-yl]-5-methyl-7-oxo-pyrazolo[4,3-d]pyrimidine-3-carboxamide]	10 to 40 µM	0.01 to 0.1 µM
Cc1cn(C)nc1CNC(=O)c1nn(-c2cccc(Cl)c2)c2c1CCN(c1ccc3c(c1)C(=O)N(CCO)CC3)C2=O [Example 1217, 1-(3-Chlorophenyl)-N-[(1,4-dimethylpyrazol-3-yl)methyl]-6-[2-(2-hydroxyethyl)-1-oxo-3,4-dihydroisoquinolin-7-yl]-7-oxo-4,5-dihydropyrazolo[3,4-c]pyridine-3-carboxamide]	10 to 40 µM	0.01 to 0.1 µM
NC(=O)CN1CCc2ccc(N3CCc4c(C(=O)NCC5CC5)nn(-c5cccc(Cl)c5)c4C3=O)cc2C1=O [Example 1333, 6-(2-(2-amino-2-oxoethyl)-1-oxo-1,2,3,4-tetrahydroisoquinolin-7-yl)-1-(3-chlorophenyl)-N-(cyclopropylmethyl)-7-oxo-4,5,6,7-tetrahydro-1H-pyrazolo[3,4-c]pyridine-3-carboxamide]	> 4 µM	0.3 to 1 µM
Cc1cc(CNC(=O)CN2CCOc3ccc(N4CCc5c(C(=O)NCc6cc(C)n(C)n6)nn(-c6cccc(Cl)c6)c5C4=O)cc3C2=O)nn1C [Example 1383, 1-(3-chlorophenyl)-N-((1,5-dimethyl-1H-pyrazol-3-yl)methyl)-6-(4-(2-(((1,5-dimethyl-1H-pyrazol-3-yl)methyl)amino)-2-oxoethyl)-5-oxo-2,3,4,5-tetrahydrobenzo[f][1,4]oxazepin-7-yl)-7-oxo-4,5,6,7-tetrahydro-1H-pyrazolo[3,4-c]pyridine-3-carboxamide]	3 to 10 µM	0.01 to 0.1 µM
CCNC(=O)c1nn(-c2cccc(Cl)c2)c2c1CCN(c1cccc(N3CCN(C)C3=O)c1)C2=O [Example 1364, 1-(3-chlorophenyl)-N-ethyl-6-(3-(3-methyl-2-oxoimidazolidin-1-yl)phenyl)-7-oxo-4,5,6,7-tetrahydro-1H-pyrazolo[3,4-c]pyridine-3-carboxamide]	> 40 µM	1 to 3 µM
Cc1cncc(CNC(=O)c2nn(-c3cccc(Cl)c3)c3c2CCN(c2ccc4c(c2)C(=O)N(C)CC4)C3=O)c1 [Example 1201, 1-(3-chlorophenyl)-6-(2-methyl-1-oxo-1,2,3,4-tetrahydroisoquinolin-7-yl)-N-((5-methylpyridin-3-yl)methyl)-7-oxo-4,5,6,7-tetrahydro-1H-pyrazolo[3,4-c]pyridine-3-carboxamide]	10 to 40 µM	0.1 to 0.3 µM
CN1CCc2ccc(N3CCc4c(C(=O)NCC5CC5)nn(-c5cccc(Cl)c5F)c4C3=O)cc2C1=O [Example 2004, 1-(3-chloro-2-fluorophenyl)-N-(cyclopropylmethyl)-6-(2-methyl-1-oxo-1,2,3,4-tetrahydroisoquinolin-7-yl)-7-oxo-4,5,6,7-tetrahydro-1H-pyrazolo[3,4-c]pyridine-3-carboxamide]	> 40 µM	0.1 to 0.3 µM
Cc1cc(CNC(=O)c2nn(-c3cccc(Cl)c3)c3c2CCN(c2ccc4c(c2)C(=O)N(CC(=O)O)CC4)C3=O)n[nH]1 [Example 1332, 2-(7-(1-(3-chlorophenyl)-3-(((5-methyl-1H-pyrazol-3-yl)methyl)carbamoyl)-7-oxo-1,4,5,7-tetrahydro-6H-pyrazolo[3,4-c]pyridin-6-yl)-1-oxo-3,4-dihydroisoquinolin-2(1H)-yl)acetic acid]	> 4 µM	0.3 to 1 µM
O=C(NCC1CCOC1)c1nn(-c2cccc(Cl)c2)c2c1CCN(c1ccc3c(c1)C(=O)N(CCO)CC3)C2=O (stereo not shown) [Example 1260, 1-(3-chlorophenyl)-6-(2-(2-hydroxyethyl)-1-oxo-1,2,3,4-tetrahydroisoquinolin-7-yl)-7-oxo-N-((tetrahydrofuran-3-yl)methyl)-4,5,6,7-tetrahydro-1H-pyrazolo[3,4-c]pyridine-3-carboxamide]	> 40 µM	0.3 to 1 µM
CCN1CCc2c(F)cc(N3CCc4c(C(=O)NCC5CC5)nn(-c5cccc(Cl)c5)c4C3=O)cc2C1 [Example 1121, 1-(3-chlorophenyl)-N-(cyclopropylmethyl)-6-(2-ethyl-5-fluoro-1,2,3,4-tetrahydroisoquinolin-7-yl)-7-oxo-4,5,6,7-tetrahydro-1H-pyrazolo[3,4-c]pyridine-3-carboxamide]	> 40 µM	0.1 to 0.3 µM
O=C(NCC1CC1)c1nn(-c2cccc(Cl)c2)c2c1CCN(c1ccc3c(c1)CN(C1COC1)CC3)C2=O [Example 1032, 1-(3-chlorophenyl)-N-(cyclopropylmethyl)-6-(2-(oxetan-3-yl)-1,2,3,4-tetrahydroisoquinolin-7-yl)-7-oxo-4,5,6,7-tetrahydro-1H-pyrazolo[3,4-c]pyridine-3-carboxamide]	> 40 µM	0.3 to 1 µM
CN1CCc2ccc(N3CCc4c(C(=O)NCCC(=O)O)nn(-c5cccc(Cl)c5)c4C3=O)cc2C1=O [Example 1386, 3-(1-(3-chlorophenyl)-6-(2-methyl-1-oxo-1,2,3,4-tetrahydroisoquinolin-7-yl)-7-oxo-4,5,6,7-tetrahydro-1H-pyrazolo[3,4-c]pyridine-3-carboxamido)propanoic acid]	> 40 µM	1 to 3 µM
CCNC(=O)c1nn(-c2cccc(C)c2F)c2c1CCN(c1ccc3c(c1)C(=O)N(C)CC3)C2=O [Example 2032, N-ethyl-1-(2-fluoro-3-methylphenyl)-6-(2-methyl-1-oxo-1,2,3,4-tetrahydroisoquinolin-7-yl)-7-oxo-4,5,6,7-tetrahydro-1H-pyrazolo[3,4-c]pyridine-3-carboxamide]	> 40 µM	0.3 to 1 µM
